Data as given in patent US20200115353A1, “NEW COMPOUNDS INHIBITORS OF THE YAP/TAZ-TEAD INTERACTION AND THEIR USE IN THE TREATMENT OF MALIGNANT MESOTHELIOMA” (INVENTIVA, priority 2017, published 2020).

Key:
[1] = target: T1, YAP-TEAD interaction (full length human TEAD1-Gal4 fusion, full length YAP mutant S127A, S397A) (UniProt P04386+P28347); assay: Cell-based TEAD-GAL4 transactivation assay (luciferase reporter, HEK293); conditions: HEK293 cells, compounds 0.1 μM to 30 μM, 24 h, concentration that inhibited the luciferase activity by 50%
T1 construct: The TEAD1 construct was prepared by cloning the full length human TEAD1 cDNA; expressed in transfected cells; host or cells: HEK293 GripTite 293 MSR (Invitrogen R795-07), transiently transfected with pSG5_CMV plasmids
Protocol: To identify inhibitors of YAP-TEAD interaction, a transient transactivation assays was carried out into HEK293 cell line (HEK293 GripTite™ 293 MSR (Invitrogen R795-07)) using plasmids containing the full length TEAD1 sequences, the full length YAP mutant (S127A, S397A) and a luciferase gene reporter. All expression constructs were performed into pSG5 backbone plasmid in which the SV40 promoter was replaced by the CMV promoter. The TEAD1 construct was prepared by cloning the full length human TEAD1 cDNA in fusion with the Gal4 DNA Binding Domain (AA 1-148) into pSG5_CMV to create the TEAD1(FL)_hum_pSG5Gal4_CMV. The full length YAP mutant (S127A, S397A) was also cloned into pSG_5 CMV to create the YAP(FL)_hum_pSG5_[…]. The reporter plasmid GAL4(5×RE)_[…]_pGL3-Basic contains 5 copies of the GAL4 responsive element (5′-TCGGAGGACAGTACTCC-3′) upstream of the thymidine kinase (TK) promoter (−105/+56) inserted in a pGL3-Basic vector. To evaluate the selectivity of our compounds in blocking the YAP-TEAD interaction, a counter-screening protein-protein interaction transactivation assays was also established. Briefly, two other expression plasmids, the pBD-P53 which express the P53 (AA 72-390) in fusion with Gal4 and the pAD-SV40T which express the SV40 large T antigen (AA 84-708,AgT), were created. HEK293 cells were seeded at 5×10^4 cells/well in 96 well plates (assay plates) in DMEM medium containing 4.5 g/L D-glucose, 10% high inactivated (HI) fetal bovine serum 1% Glutamax, 1% non-essential amino acid and 1% sodium pyruvate and 0.5% penicillin/streptomycin 37° C. in a humidified atmosphere of 8% CO2. After 24 h, transfections are performed using Jet-PEI as transfectant (101B-010 Polyplus Transfection), according to the instructions of the manufacturer (N/P=10) and a ratio YAP/TEAD=10 (per well: 50 ng of YAP(FL), 5 ng of TEAD(FL) and 50 ng of reporter plasmid). Six hours after cell transfection, the plates (‘assay plate’) were washed with 100 μl PBS per well and cell were treated with compounds in semi-log from 0.1 μM to 30 μM or DMSO 0.5% as control in DMEM 4.5 g/L D-Glucose without phenol red, 0.3% BSA, 1% glutamax, 1% NEAA, 1% sodium pyruvate. Twenty-four hours later, the luciferase activity was determined after addition of 100 μl of Steady Glo™ luciferase assay system (Promega E2550) according to the manufacturer's directions. Luciferase activity in cell extracts is measured by reading luminescence using the Envision device.
The cellular response was determined by fitting the concentration response curves using a 3-parameter curve fit equation and determining the concentration that inhibited the luciferase activity by 50%.

[2] = test system: Met5A cell line; assay: Cell proliferation in YAP-independent cell line (EdU); format: cell-based; conditions: FIG. 1
Protocol: (§1) The tumor cell growth inhibitory activity of the YAP-TEAD interaction inhibitors was evaluated in NCI-H2052 mesothelioma cell line harboring a NF2 mutation. This cell line was selected based on its mutational status and the ability of a siRNA directed against YAP, TAZ or TEAD1-4 to inhibit cell proliferation. The nuclear localization of YAP at confluence was also taken into account. Based on these observations we were able to classify several “YAP dependent cells” where YAP is clearly nuclear and in which a cell growth inhibition is observed by using siRNA (NCI-H2052, SKOV-3, ACHN, A549) and the “YAP independent cells” where YAP is preferentially located in the cytoplasm and in which no inhibition of cell growth is observed by using a siRNA (SW620, Met-5a). […] After one day growth in the starvation medium, cells were incubated with compounds. The starting concentration was 30 μM and serial dilutions in DMSO and medium were performed until 0.1 μM to achieve a final DMSO concentration of 0.5%. The cells were then allowed to grow for 3 days, and then, EdU (Invitrogen, Molecular Probe) was added in each well at a final concentration of 10 μM and the cells were returned to the incubator for additional 24 h. Starvation medium was removed and 100 μl of PFA 4% containing Hoechst dye was adding in each well to fix the cells. Plates were then incubated at rt for 15 minutes, washed twice with PBS and the cells were permeabilized by adding 100 μl per well of triton-100 containing 0.3% BSA. After 20 minutes cells were washed with PBS and the EdU detection was performed according to the instructions of the manufacturer. Image acquisition was performed using the ImageXpress Micro and analysed using the MetaXpress software (Molecular Device).
(§2) Results were expressed as a percent of inhibition (%) of the cell proliferation values obtained with 0.5% DMSO treatment alone. The cellular response was determined by fitting the concentration response curves using a 3 parameter curve fit equation and determining the concentration that inhibited cell growth between 50% and 100%.

[3] = test system: NCI-H2052 mesothelioma cell line; assay: Inhibition of malignant mesothelioma tumor cell growth (EdU proliferation); format: cell-based; conditions: NF2 mutated cell line, 0.1-30 μM, FIG. 1
Protocol: as §1, §2

T1 sequence (P04386+P28347 fused, stated change not applied): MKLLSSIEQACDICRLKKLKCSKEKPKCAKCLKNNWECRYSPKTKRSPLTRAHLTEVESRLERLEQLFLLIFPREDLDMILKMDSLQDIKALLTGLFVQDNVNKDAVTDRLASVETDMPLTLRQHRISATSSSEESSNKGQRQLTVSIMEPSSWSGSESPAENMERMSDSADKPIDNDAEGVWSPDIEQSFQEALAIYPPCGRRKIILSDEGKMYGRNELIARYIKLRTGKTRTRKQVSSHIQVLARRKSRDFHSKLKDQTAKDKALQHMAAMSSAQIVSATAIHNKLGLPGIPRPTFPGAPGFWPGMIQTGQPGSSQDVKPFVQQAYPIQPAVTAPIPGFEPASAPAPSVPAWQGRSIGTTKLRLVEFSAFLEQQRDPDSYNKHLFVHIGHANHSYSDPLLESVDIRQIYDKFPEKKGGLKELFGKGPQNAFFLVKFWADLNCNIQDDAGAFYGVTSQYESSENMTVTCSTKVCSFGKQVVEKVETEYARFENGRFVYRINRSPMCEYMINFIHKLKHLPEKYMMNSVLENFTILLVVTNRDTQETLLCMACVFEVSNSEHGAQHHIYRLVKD

| Structure (SMILES) | melting point [°C] | IC50 [1] [µM] | effect on proliferation of Met5A cell line [2] | NCI-H2052 mesothelioma cell proliferation [3] |
| --- | --- | --- | --- | --- |
| COc1cc(/C=N/N(C)C2=NS(=O)(=O)c3cc(B4OC(=O)CN(C)CC(=O)O4)ccc32)ccc1F [Ex 68, 2-[3-[[(E)-(4-fluoro-3-methoxy-phenyl)methyleneamino]-methyl-amino]-1,1-dioxo-1,2-benzothiazol-6-yl]-6-methyl-1,3,6,2-dioxazaborocane-4,8-dione] | – | 4.5 | without showing any effect | inhibited NCI-H2052 mesothelioma cell proliferation |
| CN(/N=C/c1ccc2[nH]c(=O)n(C3CCC3)c2c1)C1=NS(=O)(=O)c2ccccc21 [Ex 28, 3-cyclobutyl-5-[(E)-[(1,1-dioxo-1,2-benzothiazol-3-yl)-methyl-hydrazono]methyl]-1H-benzimidazol-2-one] | – | 3.06 | without showing any effect | inhibited NCI-H2052 mesothelioma cell proliferation |
| COCCOc1ccc2c(c1)C(N(C)/N=C/c1ccc(F)c(OC)c1)=NS2(=O)=O [Ex 56, N-[(E)-(4-fluoro-3-methoxy-phenyl)methyleneamino]-5-(2-methoxyethoxy)-N-methyl-1,1-dioxo-1,2-benzothiazol-3-amine] | 200 | 2.31 | – | – |
| COc1cc(/C=N/N(C)C2=NS(=O)(=O)c3cc(B(O)O)ccc32)ccc1F [Ex 50, [3-[[(E)-(4-fluoro-3-methoxy-phenyl)methyleneamino]-methyl-amino]-1,1-dioxo-1,2-benzothiazol-6-yl]boronic acid] | – | 3.03 | without showing any effect | inhibited NCI-H2052 mesothelioma cell proliferation |
| COc1cc(/C=N/N(C)C2=NS(=O)(=O)c3cc(O)ccc32)ccc1F [Ex 51, 3-[[(E)-(4-fluoro-3-methoxy-phenyl)methyleneamino]-methyl-amino]-1,1-dioxo-1,2-benzothiazol-6-ol] | 258 | – | – | – |
| Cc1ncc(/C=N/N(C)C2=NS(=O)(=O)c3ccccc32)s1 [Ex 118, N-methyl-N-[(E)-(2-methylthiazol-5-yl)methyleneamino]-1,1-dioxo-1,2-benzothiazol-3-amine] | 248 | 3.97 | – | – |

Continued, in another order:

| melting point [°C] | Structure (SMILES) | IC50 [1] [µM] | effect on proliferation of Met5A cell line [2] | NCI-H2052 mesothelioma cell proliferation [3] |
| --- | --- | --- | --- | --- |
| 313 to 315 | CN(/N=C/c1ccc2[nH]nnc2c1)C1=NS(=O)(=O)c2ccccc21 [Ex 35, N-[(E)-1H-benzotriazol-5-ylmethyleneamino]-N-methyl-1,1-dioxo-1,2-benzothiazol-3-amine] | – | – | – |
| 288 to 289 | CCC1(CC)C(=O)Nc2ccc(/C=N/N(C)C3=NS(=O)(=O)c4ccccc43)cc21 [Ex 34, 5-[(E)-[(1,1-dioxo-1,2-benzothiazol-3-yl)-methyl-hydrazono]methyl]-3,3-diethyl-indolin-2-one] | – | – | – |
| > 300 | CN(/N=C/c1ccc2c(c1)C(C)(C)C(=O)N2)C1=NS(=O)(=O)c2ccccc21 [Ex 33, 5-[(E)-[(1,1-dioxo-1,2-benzothiazol-3-yl)-methyl-hydrazono]methyl]-3,3-dimethyl-indolin-2-one] | – | – | – |
| 256 to 258 | COc1cc(/C=N/N(CCc2ccccc2)C2=NS(=O)(=O)c3ccccc32)ccc1F [Ex 46, N-[(E)-(4-fluoro-3-methoxy-phenyl)methyleneamino]-1,1-dioxo-N-(2-phenylethyl)-1,2-benzothiazol-3-amine] | – | – | – |
